Measured values from patent publication US10793525B2, “13-cis-RAMBA retinamides that degrade MNKs for treating cancer” (UNIVERSITY OF MARYLAND, BALTIMORE, priority 2014, dated 2020).

What was measured:
LNCaP cells = assay: MTT viability of LNCaP cells with AR and/or Mnk1 siRNA knockdown; type: cell-based, human
Protocol: siRNA (100 nM) was transfected into LNCaP cells using Lipofectamine® 2000 Transfection reagent (Invitrogen) as per manufacturer's protocol. Protein silencing was confirmed by immunoblot analysis. For cell growth assay experiments, transfection complex were removed after 18 h, cells were washed twice with PBS and replaced with growth medium. 24 h later drug was added and harvested after 72 h. For Western blot experiment, transfection complexes were washed off after 18 h and replaced with phenol free media for 24 h. Cells were then treated with 20 μM of VNLG-152 for an additional 24 h and cells were lysed using RIPA lysis buffer.^8b, 27 Luciferase assay was conducted in LNCaP cells using the Dual Luciferase kit (Promega) as described earlier.^8b, 13b
To confirm whether AR and Mnk1 are the major anti-cancer targets of these compounds on LNCaP cells, the percentage of cell survival in LNCaP cells was analyzed by MTT assay following transient transfection with AR siRNA and/or Mnk1 siRNA for 18 hours.

[1] = tested on: CWR22Rv1 xenograft tumors; assay: CWR22Rv1 anti-tumor efficacy study (xenograft); type: in vivo, mice
Protocol: All animal studies were performed according to the guidelines and approval of the Animal Care Committee of the University of Maryland School of Medicine, Baltimore (UMB). Female Athymic Nude mice or male SCID (Charles Rivers Laboratories or UMB facilities) at 4-6 weeks of age were maintained in a pathogen-free environment. MDA-MB-231 (10×10^6) cells were subcutaneously implanted into Athymic Nude mice and CWR22Rv1 (1×10^6) cells into male SCID mice. Mice bearing established tumors (˜100 mm^3) were randomized into treatment groups of 6 and dosed with vehicle (40% β-cyclodexdrin in ddH2O), or compounds 20 and 22 (i.p., formulated in 40% β-cyclodexdrin in ddH2O, once daily, 5 days a week for 28 days).
The National Cancer Institute (NCI) criteria^23 were used to determine tumor growth efficacy of our compounds. Thus, percent test or treatment/control (% T/C), defined as the ratio of the median tumor volume for the treated group versus control group, was calculated as % T/C=[(median tumor volume of treated group at day 28)/(median tumor volume of control group at day 28)]×100.

[2] = tested on: MCF-7 human breast cancer cells; assay: MTT cell proliferation assay, MCF-7; type: cell-based; details: Homo sapiens, MCF7; MCF-7 cells, MTT, SEM < 10%; read-out: GI50s MCF-7
From the text: (§1) MCF-7, MDA-MB-231, MDA-MB-468 and SKBR-3 human breast cancer cells and LNCaP, PC-3, and CWR22Rv1 human prostate carcinoma cells (American Type Culture Collection, Manassas, Va., USA) were maintained in RPMI 1640 media (Gibco-Life Technologies, Grand Island, N.Y., USA) supplemented with 10% fetal bovine serum and 1% penicillin/streptomycin. Western blotting was done as mentioned previously,^8, 13b using the following antibodies: AR, Bad, Bax, Bcl-2, eIF4E, Mnk1, Mnk-2, N-cadherin, PARP, peIF4E^ser209 purchased from Cell Signaling Technology, Danvers, Mass., USA. Anti-Mnk2 was purchased from Sigma-Aldrich and normal rabbit IgG, cyclin D1 was from Santa Cruz Biotechnology, CA, USA.
(§2) Cells were plated (2500 cells/well) in 96 well plates and treated with or without specified compounds as described previously.^8a, 12b
(§3) The clinically relevant retinoids, ATRA and 4-HPR and the Mnk inhibitor, cercosporamide were used as comparators in the assays.

MDA-MB-231 cells = assay: Wound-healing assay, MDA-MB-231 cell migration; type: cell-based, human; details: 5 μM, 24 h
Protocol: Wound healing assay and matrigel invasion assay were also conducted as described previously using highly metastatic PC-3 cells following treatment with 5 μM of RRs for 24 h.^8a,26
Based on previous studies with closely related compound,^8 the inhibitory effects of Compounds 16, 20 and 22 on cell migration were evaluated, using the human metastatic BC cell line, MDA-MB-231 by wound-healing assay. MDA-MB-231 cells (5×10^5 cells/well) were seeded on Boyden chamber, grown to confluence and scratches made at experimental tome zero. The cells were treated with indicated compounds (5 μM each) for 24 h. Representative photomicrographs of initial and final wounds are shown at 100× magnification. […] At 24 hours after cell monolayers were wounded, control cells had completely filled in the scratched area.

[3] = tested on: CWR22Rv1 human prostate carcinoma cells; assay: MTT cell proliferation assay, CWR22Rv1; type: cell-based; details: SEM < 10%, read-out: GI50s CWR22Rv1
From the text: as §1, §2, §3
(§4) The PC-3 cell line was the least sensitive to all the compounds tested.

[4] = tested on: LNCaP human prostate carcinoma cells; assay: MTT cell proliferation assay, LNCaP; type: cell-based; details: SEM < 10%, read-out: GI50s LNCaP
From the text: as §1, §2, §3, §4

[5] = tested on: Mnk1 and 2, peIF4E, eIF4E and cPARP; assay: Western blot of lysates from MCF-7, MDA-MB-231 and MDA-MB-468 cells; type: cell-based, human; details: MCF-7, MDA-MB-231, MDA-MB-468 cells, 24 hours
From the text: as §1
As we previously reported, the anti-proliferative effects of the 1st generation MNKDAs in BC cells was due to degradation of Mnk1/2 with subsequent depletion of peIF4E and induction of apoptosis.^8a To determine if these compounds modulate Mnk1/2 and related oncogenic proteins, the inventors performed western blot of lysates from MCF-7, MDA-MB-231 and MDA-MB-468 human breast cancer cells treated with Compounds 16, 20, and 22, or with vehicle (DMSO, negative control), or Compound 6 (positive control). Equal protein concentrations from MCF-7 (FIG. 3A), MDA-MB-231 (FIG. 3B) and MDA-MB-468 (FIG. 3C) cells treated for 24 hours with Compounds 16, 20 and 22 at the various concentrations as indicated and Compound 6 (20 μmol/L) were separated by SDS-PAGE and western blots probed with antibodies to Mnk1 and 2, peIF4E, eIF4E and cPARP. Vehicle treated cells were included as control and all blots were reprobed for GAPDH for loading control.

[6] = tested on: MDA-MB-468 human breast cancer cells; assay: MTT cell proliferation assay, MDA-MB-468; type: cell-based; details: MDA-MB-468 cells, SEM < 10%, read-out: GI50s MDA-MB-468
From the text: as §1, §2, §3

[7] = tested on: MDA-MB-231 human breast cancer cells; assay: MTT cell proliferation assay, MDA-MB-231; type: cell-based; details: MDA-MB-231 cells, SEM < 10%, read-out: GI50s MDA-MB-231
From the text: as §1, §2, §3

[8] = tested on: Mnk-1, peIF4E and their downstream targets; assay: Molecular analysis of MDA-MB-231 tumors; type: in vivo; details: MDA-MB-231 tumors from treated mice
From the text: To assess their in vivo mode of action, we evaluated the effects of Compounds 20 and 22 on Mnk-1, peIF4E and their downstream targets.

[9] = CWR22Rv1 xenografts, castrated SCID mice, i.p. 20 mg/kg/day, 5 days per week for 28 days

`CC1=C(/C=C/C(C)=C/C=C/C(C)=C\C(=O)Nc2cccc(F)c2)C(C)(C)CCC1n1ccnc1` (stereo not drawn) [Compound 20, (2Z,4E,6E,8E)-9-(3-(1H-imidazol-1-yl)-2,6,6-trimethylcyclohex-1-en-1-yl)-N-(3-fluorophenyl)-3,7-dimethylnona-2,4,6,8-tetraenamide] was tested, and the “cell viability, un-transfected LNCaP cells” value (LNCaP cells; 5 μM, 72 hours, MTT) was “robust reduction in cell viability”, the “cell viability, LNCaP cells harboring AR or Mnk1 knockdown” value (LNCaP cells; 5 μM, compared to siRNA alone treated counterparts) was “sensible decrease in cell viability” and the “cell viability, LNCaP cells with double knockdown of AR and Mnk1” value (LNCaP cells; compared to cells co-treated with Mnk1 and AR siRNA) was “did not show any significant decrease in cell viability”. For the same compound, the adverse effects ([1]; CWR22Rv1 xenograft mice) was “no apparent adverse effects”, the body weights ([1]; CWR22Rv1 xenograft mice, vehicle control versus treatment) was “comparable” and the “% T/C value” [1, 9] was 38.8%. The “suppression of tumor growth” value [1, 9] was 61.2%, the IC50 [2] was 5.69 µM and the “migration of MDA-MB-231 cells” value (MDA-MB-231 cells) was “significantly inhibited migration”. The IC50 [3] was 2.04 µM, the IC50 [4] was 2.69 µM and the “expression of total eIF4E” value [5] was “no noticeable effects”. For the same compound, the “expressions of Mnk1, Mnk2 and peIF4E” value [5] was “significantly and dose-dependently, reduced”, the “formation of c-PARP (apoptosis)” value [5] was “dose-dependent formation of c-PARP” and the IC50 [6] was 6.76 µM. The IC50 [7] was 8.51 µM, the “Mnk1/2, peIF4E, cyclin D1 and Bcl-2 in tumors” value [8] was “depletion” and the “pro-apoptotic proteins Bad and Bax in tumors” value [8] was “up-regulation”.
